Measured values reported in ChEMBL document CHEMBL3352001, “2,4-Dialkyl-8,9,10,11-tetrahydrobenzo[g]pyrimido[4,5-c]isoquinoline-1,3,7,12(2H,4H)-tetraones as new leads against Mycobacterium tuberculosis” (Eur J Med Chem, 2014).
In brackets after ≈: the same amount, converted by molar mass.

What was measured:
[1] = tested on: Mycobacterium tuberculosis; test: Antimycobacterial activity against Mycobacterium tuberculosis H37Rv infected in mouse J774A1 cells assessed as reduction in bacillary replication at 6.25 ug/mL treatment stated after 24 hrs of infection for 4 days by luminometry; type: functional, J774.A1
[2] = tested on: Mycobacterium tuberculosis; test: Antimycobacterial activity against Mycobacterium tuberculosis H37Rv infected in mouse J774A1 cells assessed as reduction in bacillary replication at 12.5 ug/mL treatment stated after 24 hrs of infection for 4 days by luminometry; type: functional, J774.A1
[3] = tested on: Salmonella typhimurium; test: Genotoxicity in Salmonella typhimurium Cytox (pr1) expressing lux operon assessed as S/N ratio at 0.1 to 10 ug/mL measured for 4 hrs with 5 mins interval by vitotox assay; type: toxicity, organism-based; conditions: salmonella enterica subsp. enterica serovar typhimurium
[4] = tested on: Salmonella typhimurium; test: Genotoxicity in Salmonella typhimurium T104 Genox (recN2-4) expressing lux operon assessed as S/N ratio at 0.1 to 10 ug/mL measured for 4 hrs with 5 mins interval by vitotox assay in presence of S9 fraction; type: toxicity, organism-based; conditions: salmonella enterica subsp. enterica serovar typhimurium, s9, 4 h
[5] = Cytotoxicity against mouse J774A1 cells after 24 hrs by neutral red dye uptake assay; type: cell-based; conditions: J774.A1, 24 h, read-out: I50
[6] = tested on: Salmonella typhimurium; test: Genotoxicity in Salmonella typhimurium T104 Genox (recN2-4) expressing lux operon assessed as S/N ratio at 0.1 to 10 ug/mL measured for 4 hrs with 5 mins interval by vitotox assay; type: toxicity, organism-based; conditions: salmonella enterica subsp. enterica serovar typhimurium
[7] = tested on: Mycobacterium tuberculosis; test: Antimycobacterial activity against Mycobacterium tuberculosis H37Rv infected in mouse J774A1 cells assessed as reduction in bacillary replication at 3.13 ug/mL treatment stated after 24 hrs of infection for 4 days by luminometry; type: functional, J774.A1
[8] = Cytotoxicity against mouse J774A1 cells assessed as structural organization of DNA at 0.5 to 5 ug/mL after 24 hrs by Comet assay; type: cell-based; conditions: j774.a1, 24 h
[9] = Selectivity index, ratio of I50 for mouse J774A1 cells to GI50 for Mycobacterium tuberculosis H37Rv; type: toxicity, cell-based, J774.A1; conditions: read-out: Selectivity Index
[10] = tested on: Salmonella typhimurium; test: Genotoxicity in Salmonella typhimurium Cytox (pr1) expressing lux operon assessed as S/N ratio at 0.1 to 10 ug/mL measured for 4 hrs with 5 mins interval by vitotox assay in presence of S9 fraction; type: toxicity, organism-based; conditions: salmonella enterica subsp. enterica serovar typhimurium, s9, 4 h
[11] = tested on: Mycobacterium tuberculosis; test: Antimycobacterial activity against Mycobacterium tuberculosis H37Rv infected in mouse J774A1 cells assessed as reduction in bacterial load inside the cell at 6.25 ug/mL treatment stated after 24 hrs of infection for 4 days by luminometry; type: functional, J774.A1; design: scale not given: the % may be the effect or the level left
[12] = tested on: Mycobacterium tuberculosis; test: Antimycobacterial activity against Mycobacterium tuberculosis H37Rv infected in mouse J774A1 cells assessed as reduction in bacterial load inside the cell at 3.13 ug/mL treatment stated after 24 hrs of infection for 4 days by luminometry; type: functional, J774.A1; design: scale not given: the % may be the effect or the level left
[13] = tested on: Mycobacterium tuberculosis; test: Antimycobacterial activity against Mycobacterium tuberculosis H37Rv infected in mouse J774A1 cells assessed as reduction in extracellular bacterial load at 3.13 ug/mL treatment stated after 24 hrs of infection for 4 days by luminometry; type: functional, J774.A1

Structure (SMILES) | IC50 [5] [µg/mL] | selectivity ratio [9] | also measured
CCCCCCCn1c(=O)c2c3c(cnc2n(CCCCCCC)c1=O)C(=O)C1=C(C3=O)C2CCC1C2 (stereo not given) | 26.5 (≈ 52.3 µM) | 42 | inhibition (INH) [1]: 80.4%; inhibition (INH) [2]: 91.3%; Ratio [3]: < 1.5; Ratio [4]: 0.8; Ratio [6]: 0.8; inhibition (INH) [7]: 65.5%; Activity [8]: Non-toxic; Ratio [10]: < 1.5
Cn1c(=O)c2c3c(cnc2n(C)c1=O)C(=O)C1=C(C3=O)C2CCC1C2 (stereo not given) | 15.4 (≈ 45.5 µM) | 9.72 | –
CC(C)n1c(=O)c2c3c(cnc2n(C(C)C)c1=O)C(=O)C1=C(C3=O)C2CCC1C2 (stereo not given) | 9.71 (≈ 24.7 µM) | 10.8 | Activity [11]: 98.03%; Activity [12]: 57.72%; Ratio [3]: < 1.5; Ratio [4]: 0.8; Ratio [6]: 0.8; inhibition (INH) [13]: 99%; Activity [8]: Non-toxic; Ratio [10]: < 1.5
CCCCCCn1c(=O)c2c3c(cnc2n(CCCCCC)c1=O)C(=O)C1=C(C3=O)C2CCC1C2 (stereo not given) | 12.1 (≈ 25.3 µM) | 9.9 | –
CCn1c(=O)c2c3c(cnc2n(CC)c1=O)C(=O)C1=C(C3=O)C2CCC1C2 (stereo not given) | 18.2 (≈ 49.9 µM) | 10.8 | –
CCCCCn1c(=O)c2c3c(cnc2n(CCCCC)c1=O)C(=O)C1=C(C3=O)C2CCC1C2 (stereo not given) | 13.4 (≈ 29.7 µM) | 10.6 | –
CC(C)Cn1c(=O)c2c3c(cnc2n(CC(C)C)c1=O)C(=O)C1=C(C3=O)C2CCC1CC2 | 20.4 (≈ 46.9 µM) | 4.69 | –
CC(C)CCn1c(=O)c2c3c(cnc2n(CCC(C)C)c1=O)C(=O)C1=C(C3=O)C2CCC1C2 (stereo not given) | 22.5 (≈ 50 µM) | 9.32 | –
CCCCCCCn1c(=O)c2c3c(cnc2n(CCCCCCC)c1=O)C(=O)C1=C(C3=O)C2CCC1CC2 | 32.8 (≈ 63.1 µM) | 24.8 | inhibition (INH) [1]: 68.8%; inhibition (INH) [2]: 92%; Ratio [3]: < 1.5; Ratio [4]: 0.8; Ratio [6]: 0.8; Activity [8]: Non-toxic; Ratio [10]: < 1.5
CCCn1c(=O)c2c3c(cnc2n(CCC)c1=O)C(=O)C1=C(C3=O)C2CCC1C2 (stereo not given) | 18.7 (≈ 47.5 µM) | 18.7 | –
CCCCn1c(=O)c2c3c(cnc2n(CCCC)c1=O)C(=O)C1=C(C3=O)C2CCC1CC2 | 9.87 (≈ 22.7 µM) | 5.36 | –
CC(C)Cn1c(=O)c2c3c(cnc2n(CC(C)C)c1=O)C(=O)C1=C(C3=O)C2CCC1C2 (stereo not given) | 16.8 (≈ 39.8 µM) | 8.06 | –
CCCCn1c(=O)c2c3c(cnc2n(CCCC)c1=O)C(=O)C1=C(C3=O)C2CCC1C2 (stereo not given) | 9.5 (≈ 22.5 µM) | 6.51 | –
CC(C)CCn1c(=O)c2c3c(cnc2n(CCC(C)C)c1=O)C(=O)C1=C(C3=O)C2CCC1CC2 | 23.4 (≈ 50.4 µM) | 4.77 | –
CCn1c(=O)c2c3c(cnc2n(CC)c1=O)C(=O)C1=C(C3=O)C2CCC1CC2 | 19.9 (≈ 52.4 µM) | 7.79 | –
Cn1c(=O)c2c3c(cnc2n(C)c1=O)C(=O)C1=C(C3=O)C2CCC1CC2 | 16.8 (≈ 47.8 µM) | 5.94 | –
CCCn1c(=O)c2c3c(cnc2n(CCC)c1=O)C(=O)C1=C(C3=O)C2CCC1CC2 | 22 (≈ 54 µM) | 8.5 | –
CC(C)n1c(=O)c2c3c(cnc2n(C(C)C)c1=O)C(=O)C1=C(C3=O)C2CCC1CC2 | 11.8 (≈ 28.9 µM) | 16.1 | inhibition (INH) [1]: 82.3%; Ratio [3]: < 1.5; Ratio [4]: 0.8; Ratio [6]: 0.8; inhibition (INH) [7]: 58.7%; Activity [8]: Non-toxic; Ratio [10]: < 1.5
CCCCCn1c(=O)c2c3c(cnc2n(CCCCC)c1=O)C(=O)C1=C(C3=O)C2CCC1CC2 | 16.4 (≈ 35.3 µM) | 11 | –
CCCCCCn1c(=O)c2c3c(cnc2n(CCCCCC)c1=O)C(=O)C1=C(C3=O)C2CCC1CC2 | 13.7 (≈ 27.9 µM) | 10.1 | –
